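Test compounds were applied to cells in 96-well plates for 48 hours at 5 doses. At the GI50, growth is halved.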 Calls of active or inactive are those of the source. Rule as the data show it: active = GI50 up to about 1.1 µM and inactive = higher.
How the values were obtained:
Assay in all cases: NCI anticancer screen, dose series, 48 h
[1] = system: 786-0
[2] = system: ACHN
[3] = system: BT-549
[4] = system: CAKI-1
[5] = system: COLO 205
[6] = system: DU-145
[7] = system: EKVX
[8] = system: HCT-116
[9] = system: HCT-15
[10] = system: HOP-62
[11] = system: K562
[12] = system: KM12
[13] = system: LOX IMVI
[14] = system: M14
[15] = system: MCF7
[16] = system: MDA-MB-231
[17] = system: MDA-MB-435
[18] = system: MDA-N
[19] = system: MOLT-4
[20] = system: NCI-H23
[21] = system: OVCAR-3
[22] = system: OVCAR-5
[23] = system: OVCAR-8
[24] = system: PC-3
[25] = system: SF-295
[26] = system: SK-MEL-28
[27] = system: SK-MEL-2
[28] = system: SK-OV-3
[29] = system: SNB-19
[30] = system: SNB-75
[31] = system: SR
[32] = system: SW-620
[33] = system: TK-10
[34] = system: UACC-257
[35] = system: UACC-62
[36] = system: A549
[37] = system: CCRF-CEM
[38] = system: HCC 2998
[39] = system: HL-60
[40] = system: HOP-92
[41] = system: HT-29
[42] = system: Hs-578T
[43] = system: IGROV-1
[44] = system: Malme-3M
[45] = system: NCI-H226
[46] = system: NCI-H460
[47] = system: NCI-H522
[48] = system: NCI/ADR-RES
[49] = system: OVCAR-4
[50] = system: RPMI-8226
[51] = system: RXF 393
[52] = system: SF-268
[53] = system: SF-539
[54] = system: SK-MEL-5
[55] = system: SN12C
[56] = system: T47D
[57] = system: U-251
[58] = system: UO-31
[59] = system: A498

For `O=c1[nH]c2ccc(CC(=S)N3CCCCC3)cc2s1`, the GI50 [1] was > 100 µM (inactive), the GI50 [2] was > 100 µM (inactive) and the GI50 [3] was > 100 µM (inactive). For the same compound, the GI50 [4] was 91.6 µM (inactive), the GI50 [5] was > 100 µM (inactive) and the GI50 [6] was > 100 µM (inactive). For the same compound, the GI50 [7] was 0.214 µM (active), the GI50 [8] was > 100 µM (inactive) and the GI50 [9] was greater than 100 µM. The GI50 [10] was 71.9 µM (inactive), the GI50 [11] was > 100 µM (inactive) and the GI50 [12] was > 100 µM (inactive). The GI50 [13] was > 100 µM (inactive), the GI50 [14] was > 100 µM (inactive) and the GI50 [15] was > 100 µM (inactive). For the same compound, the GI50 [16] was > 100 µM (inactive), the GI50 [17] was > 100 µM (inactive) and the GI50 [18] was > 100 µM (inactive). For the same compound, the GI50 [19] was > 100 µM (inactive), the GI50 [20] was > 100 µM (inactive) and the GI50 [21] was > 100 µM (inactive). For the same compound, the GI50 [22] was > 100 µM (inactive), the GI50 [23] was > 100 µM (inactive) and the GI50 [24] was > 100 µM (inactive). For the same compound, the GI50 [25] was > 100 µM (inactive), the GI50 [26] was > 100 µM (inactive) and the GI50 [27] was > 100 µM (inactive). For the same compound, the GI50 [28] was > 100 µM (inactive), the GI50 [29] was > 100 µM (inactive) and the GI50 [30] was 0.163 µM (active). For the same compound, the GI50 [31] was 26.4 µM (inactive), the GI50 [32] was > 100 µM (inactive) and the GI50 [33] was > 100 µM (inactive). The GI50 [34] was > 100 µM (inactive) and the GI50 [35] was > 100 µM (inactive).
`CC(O)=C1C(=O)CCC1=O` was tested, and the GI50 [36] was > 100 µM (inactive), the GI50 [2] was > 100 µM (inactive) and the GI50 [3] was > 100 µM (inactive). The GI50 [4] was > 100 µM (inactive), the GI50 [37] was > 100 µM (inactive) and the GI50 [5] was > 100 µM (inactive). For the same compound, the GI50 [6] was > 100 µM (inactive), the GI50 [7] was > 100 µM (inactive) and the GI50 [38] was > 100 µM (inactive). For the same compound, the GI50 [8] was > 100 µM (inactive), the GI50 [39] was > 100 µM (inactive) and the GI50 [10] was > 100 µM (inactive). The GI50 [40] was > 100 µM (inactive), the GI50 [41] was > 100 µM (inactive) and the GI50 [42] was > 100 µM (inactive). The GI50 [43] was > 100 µM (inactive), the GI50 [11] was > 100 µM (inactive) and the GI50 [12] was > 100 µM (inactive). The GI50 [13] was > 100 µM (inactive), the GI50 [14] was > 100 µM (inactive) and the GI50 [15] was > 100 µM (inactive). For the same compound, the GI50 [17] was > 100 µM (inactive), the GI50 [19] was > 100 µM (inactive) and the GI50 [44] was > 100 µM (inactive). The GI50 [45] was > 100 µM (inactive), the GI50 [20] was > 100 µM (inactive) and the GI50 [46] was > 100 µM (inactive). For the same compound, the GI50 [47] was > 100 µM (inactive), the GI50 [48] was > 100 µM (inactive) and the GI50 [21] was > 100 µM (inactive). The GI50 [49] was > 100 µM (inactive), the GI50 [22] was > 100 µM (inactive) and the GI50 [23] was > 100 µM (inactive). For the same compound, the GI50 [24] was > 100 µM (inactive), the GI50 [50] was > 100 µM (inactive) and the GI50 [51] was > 100 µM (inactive). For the same compound, the GI50 [52] was > 100 µM (inactive), the GI50 [25] was > 100 µM (inactive) and the GI50 [53] was > 100 µM (inactive). The GI50 [26] was > 100 µM (inactive), the GI50 [27] was > 100 µM (inactive) and the GI50 [54] was > 100 µM (inactive). For the same compound, the GI50 [28] was > 100 µM (inactive), the GI50 [55] was > 100 µM (inactive) and the GI50 [29] was > 100 µM (inactive). The GI50 [30] was > 100 µM (inactive), the GI50 [31] was > 100 µM (inactive) and the GI50 [32] was > 100 µM (inactive). For the same compound, the GI50 [56] was > 100 µM (inactive), the GI50 [33] was > 100 µM (inactive) and the GI50 [57] was > 100 µM (inactive). For the same compound, the GI50 [34] was > 100 µM (inactive), the GI50 [35] was > 100 µM (inactive) and the GI50 [58] was > 100 µM (inactive).
With `C/C=C/[C@H]1O[C@@](O)([C@@H](C)[C@H](O)[C@H](C)[C@H]2OC(=O)/C(OC)=C/C(C)=C/[C@@H](C)[C@@H](O)[C@@H](CC)[C@@H](O)[C@H](C)C/C(C)=C/C=C/[C@@H]2OC)C[C@H](OC2CC(O)C(OC(N)=O)C(C)O2)[C@@H]1C` (stereo not given in full) the GI50 [1] was 0.0183 µM (active), the GI50 [59] was 18.8 µM (inactive) and the GI50 [36] was < 0.0181 µM (active). The GI50 [2] was 0.0286 µM (active), the GI50 [3] was 0.0843 µM (active) and the GI50 [4] was 0.0532 µM (active). The GI50 [37] was < 0.01 µM (active), the GI50 [5] was 0.0334 µM (active) and the GI50 [6] was 0.914 µM (active). The GI50 [7] was 0.0719 µM (active), the GI50 [38] was 0.0787 µM (active) and the GI50 [8] was 0.017 µM (active). For the same compound, the GI50 [9] was 0.0426 µM, the GI50 [39] was < 0.01 µM (active) and the GI50 [10] was < 0.0249 µM (active). For the same compound, the GI50 [41] was < 0.01 µM (active), the GI50 [42] was 12.4 µM (inactive) and the GI50 [43] was 0.0458 µM (active). The GI50 [11] was 0.024 µM (active), the GI50 [12] was < 0.0163 µM (active) and the GI50 [13] was < 0.01 µM (active). The GI50 [14] was < 0.0161 µM (active), the GI50 [15] was 0.0293 µM (active) and the GI50 [16] was 0.678 µM (active). The GI50 [17] was 0.0275 µM (active), the GI50 [19] was < 0.01 µM (active) and the GI50 [44] was 0.122 µM (active). The GI50 [45] was 0.0336 µM (active), the GI50 [20] was 7.13 µM (inactive) and the GI50 [46] was < 0.0111 µM (active). The GI50 [47] was 0.0399 µM (active), the GI50 [48] was 0.759 µM (active) and the GI50 [21] was < 0.0181 µM (active). The GI50 [49] was 0.0791 µM (active), the GI50 [22] was 11.9 µM (inactive) and the GI50 [23] was 0.0474 µM (active). The GI50 [24] was < 0.01 µM (active), the GI50 [50] was < 0.0157 µM (active) and the GI50 [51] was 8.87 µM (inactive). The GI50 [52] was 0.0447 µM (active), the GI50 [25] was 0.0248 µM (active) and the GI50 [53] was 0.0224 µM (active). For the same compound, the GI50 [26] was 0.74 µM (active), the GI50 [27] was 0.0195 µM (active) and the GI50 [54] was 0.0142 µM (active). For the same compound, the GI50 [28] was 12.8 µM (inactive), the GI50 [55] was 5.65 µM (inactive) and the GI50 [29] was 8.22 µM (inactive). The GI50 [30] was 0.525 µM (active), the GI50 [31] was < 0.01 µM (active) and the GI50 [32] was < 0.022 µM (active). For the same compound, the GI50 [56] was 0.0333 µM (active), the GI50 [33] was 17.3 µM (inactive) and the GI50 [57] was < 0.0281 µM (active). For the same compound, the GI50 [34] was 0.0641 µM (active), the GI50 [35] was 0.0231 µM (active) and the GI50 [58] was 0.0479 µM (active).
With `NC1CC(=O)c2sccc21` (stereo not given) the GI50 [1] was > 100 µM (inactive), the GI50 [59] was > 100 µM (inactive) and the GI50 [36] was > 100 µM (inactive). The GI50 [2] was > 100 µM (inactive), the GI50 [3] was > 100 µM (inactive) and the GI50 [4] was > 100 µM (inactive). The GI50 [37] was > 100 µM (inactive), the GI50 [5] was > 100 µM (inactive) and the GI50 [6] was > 100 µM (inactive). The GI50 [7] was > 100 µM (inactive), the GI50 [38] was > 100 µM (inactive) and the GI50 [8] was > 100 µM (inactive). The GI50 [9] was greater than 100 µM, the GI50 [10] was > 100 µM (inactive) and the GI50 [40] was > 100 µM (inactive). For the same compound, the GI50 [41] was > 100 µM (inactive), the GI50 [42] was > 100 µM (inactive) and the GI50 [43] was > 100 µM (inactive). The GI50 [11] was > 100 µM (inactive), the GI50 [12] was > 100 µM (inactive) and the GI50 [14] was > 100 µM (inactive). The GI50 [15] was > 100 µM (inactive), the GI50 [16] was > 100 µM (inactive) and the GI50 [17] was > 100 µM (inactive). The GI50 [19] was > 100 µM (inactive), the GI50 [45] was > 100 µM (inactive) and the GI50 [20] was > 100 µM (inactive). The GI50 [47] was > 100 µM (inactive), the GI50 [48] was > 100 µM (inactive) and the GI50 [21] was > 100 µM (inactive). The GI50 [49] was > 100 µM (inactive), the GI50 [22] was > 100 µM (inactive) and the GI50 [23] was > 100 µM (inactive). For the same compound, the GI50 [24] was 56.4 µM (inactive), the GI50 [50] was > 100 µM (inactive) and the GI50 [51] was 29.6 µM (inactive). For the same compound, the GI50 [52] was > 100 µM (inactive), the GI50 [25] was > 100 µM (inactive) and the GI50 [53] was > 100 µM (inactive). The GI50 [26] was > 100 µM (inactive), the GI50 [27] was 27.9 µM (inactive) and the GI50 [54] was > 100 µM (inactive). For the same compound, the GI50 [28] was > 100 µM (inactive), the GI50 [55] was > 100 µM (inactive) and the GI50 [29] was > 100 µM (inactive). For the same compound, the GI50 [30] was > 100 µM (inactive), the GI50 [31] was > 100 µM (inactive) and the GI50 [32] was > 100 µM (inactive). The GI50 [56] was > 100 µM (inactive), the GI50 [33] was > 100 µM (inactive) and the GI50 [57] was > 100 µM (inactive). The GI50 [34] was > 100 µM (inactive), the GI50 [35] was > 100 µM (inactive) and the GI50 [58] was > 100 µM (inactive).

— ChEMBL document CHEMBL1201862, “PubChem BioAssay data set” (2004)
